Data taken from patent US20250230193A1, “CYCLIC COMPOUND HAVING SELECTIVE KRAS INHIBITORY EFFECT ON HRAS AND NRAS” (CHUGAI SEIYAKU KABUSHIKI KAISHA, priority 2022, published 2025).

Key:
[1] = molecular target: GDP-bound NRAS wild-type protein (Homo sapiens, UniProt P01111); assay: Binding to NRAS by surface plasmon resonance (SPR), Single Cycle Kinetics; details: SPR; KD ratio class
[2] = molecular target: GDP-bound KRAS wild-type protein (Homo sapiens, UniProt P01116); assay: Binding to KRAS by surface plasmon resonance (SPR), Single Cycle Kinetics; details: SPR, Single Cycle Kinetics; GDP-bound KRAS wild-type protein
[3] = test system: human lung cancer strain NCI-H441; details: read-out: NCI-H441 IC50; NCI-H441 cells, 4 days, CellTiter-Glo
[4] = molecular target: GDP-bound HRAS wild-type protein (Homo sapiens, UniProt P01112); assay: Binding to HRAS by surface plasmon resonance (SPR), Single Cycle Kinetics; details: SPR; KD ratio class
Chain of GDP-bound HRAS wild-type protein (P01112 whole entry): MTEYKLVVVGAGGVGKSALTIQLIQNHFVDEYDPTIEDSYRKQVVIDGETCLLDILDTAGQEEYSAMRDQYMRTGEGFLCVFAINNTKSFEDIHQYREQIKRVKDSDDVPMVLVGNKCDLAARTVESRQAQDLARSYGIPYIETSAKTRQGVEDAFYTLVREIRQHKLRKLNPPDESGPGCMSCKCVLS

Chain of GDP-bound NRAS wild-type protein (P01111 whole entry): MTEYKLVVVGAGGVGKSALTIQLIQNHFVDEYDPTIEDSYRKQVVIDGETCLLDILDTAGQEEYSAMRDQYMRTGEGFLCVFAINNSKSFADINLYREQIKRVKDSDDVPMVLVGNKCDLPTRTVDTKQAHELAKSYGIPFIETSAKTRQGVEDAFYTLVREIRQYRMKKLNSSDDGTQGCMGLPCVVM

Structure (SMILES)	Kd [2]	IC50 [3]	NRAS/KRAS (ratio of KD value for GDP-bound NRAS wild-type protein to KD value for KRAS) [1]	HRAS/KRAS (ratio of KD value for GDP-bound HRAS wild-type protein to KD value for KRAS) [4]
CC[C@H](C)[C@@H]1NC(=O)[C@H](C)N(C)C(=O)C[C@@H](C(=O)N(C)C)N(C)C(=O)[C@H](C2CCCC2)N(C)C(=O)C2(CCC2)NC(=O)[C@@H]2CCCN2C(=O)[C@H](CCc2cc(F)c(C(F)(F)F)c(F)c2)NC(=O)CN(C)C(=O)[C@H](Cc2ccc(C(F)(F)F)cc2)N2CC/C=C\C[C@@H](C2=O)N(C)C(=O)CN(C)C1=O [PP1271]	0.054 nM	90.7 nM	AA (a compound having 20 or more is denoted as AA)	A (a compound having 10 or more and less than 20 is denoted as A)
CCO[C@@H]1C[C@H]2C(=O)NC3(CCCC3)C(=O)N(C)[C@@H](C3CCCC3)C(=O)N(C)[C@H](C(=O)N(C)C)CC(=O)N(C)[C@@H](CC)C(=O)N[C@@H]([C@@H](C)CC)C(=O)N(C)CC(=O)N(C)[C@H]3C/C=C\CCN(C3=O)[C@@H](Cc3ccc(C(F)(F)F)cc3)C(=O)N(C)CC(=O)N[C@@H](CCc3cc(F)c(C(F)(F)F)c(F)c3)C(=O)N2C1 [PP1276]	0.066 nM	20.8 nM	A (a compound having 10 or more and less than 20 is denoted as A)	B (a compound having 3 or more and less than 10 is denoted as B)
CCCC[C@H]1C(=O)N[C@@H]([C@@H](C)CC)C(=O)N(C)CC(=O)N(C)[C@H]2C/C=C\CCN(C2=O)[C@@H](Cc2ccc(C(F)(F)F)cc2)C(=O)N(C)CC(=O)N[C@@H](CCc2cc(F)c(C(F)(F)F)c(F)c2)C(=O)N2C[C@H](OCC)C[C@H]2C(=O)NC2(CCCC2)C(=O)N(C)[C@@H](C2CCCC2)C(=O)N(C)[C@H](C(=O)N(C)C)CC(=O)N1C [PP1397]	0.073 nM	3.7 nM	A (a compound having 10 or more and less than 20 is denoted as A)	A (a compound having 10 or more and less than 20 is denoted as A)
CCCOC[C@H]1C(=O)N[C@@H]([C@@H](C)CC)C(=O)N(C)CC(=O)N(C)[C@H]2C/C=C\CCN(C2=O)[C@@H](Cc2ccc(C(F)(F)F)cc2)C(=O)N(C)CC(=O)N[C@@H](CCc2cc(F)c(C(F)(F)F)c(F)c2)C(=O)N2C[C@H](OCC)C[C@H]2C(=O)NC2(CC(C)(C)C2)C(=O)N(C)[C@@H](C2CCCC2)C(=O)N(C)[C@H](C(=O)N(C)C)CC(=O)N1C [PP1398]	0.032 nM	2.3 nM	A (a compound having 10 or more and less than 20 is denoted as A)	A (a compound having 10 or more and less than 20 is denoted as A)

Continued, in another order:

Kd [2]	IC50 [3]	Structure (SMILES)	NRAS/KRAS (ratio of KD value for GDP-bound NRAS wild-type protein to KD value for KRAS) [1]	HRAS/KRAS (ratio of KD value for GDP-bound HRAS wild-type protein to KD value for KRAS) [4]
0.12 nM	14.7 nM	CCO[C@@H]1C[C@H]2C(=O)NC3(CCC3)C(=O)N(C)[C@@H](C3CCCC3)C(=O)N(C)[C@H](C(=O)N3CCCC3)CC(=O)N(C)[C@@H](CC3CC3)C(=O)N[C@@H]([C@@H](C)CC)C(=O)N(C)CC(=O)N(C)[C@H]3C/C=C\CCN(C3=O)[C@@H](Cc3ccc(C(F)(F)F)cc3)C(=O)N(C)CC(=O)N[C@@H](CCc3cc(F)c(C(F)(F)F)c(F)c3)C(=O)N2C1 [PP1296]	AA (a compound having 20 or more is denoted as AA)	A (a compound having 10 or more and less than 20 is denoted as A)
0.14 nM	11 nM	CCC[C@H]1C(=O)N[C@@H]([C@@H](C)CC)C(=O)N(C)CC(=O)N(C)[C@H]2C/C=C\CCN(C2=O)[C@@H](Cc2ccc(C(F)(F)F)cc2)C(=O)N(C)CC(=O)N[C@@H](CCc2cc(F)c(C(F)(F)F)c(F)c2)C(=O)N2C[C@H](OCC)C[C@H]2C(=O)NC2(CCC2)C(=O)N(C)[C@@H](C2CCCC2)C(=O)N(C)[C@H](C(=O)N2CCCC2)CC(=O)N1C [PP1299]	A (a compound having 10 or more and less than 20 is denoted as A)	A (a compound having 10 or more and less than 20 is denoted as A)
